The experiment concerns Bsu PreQ1 RNA (MFS construct) (RNA, riboswitch) UCGGCGAUCUACGCAGCGACAUAAUAAGAGGUUCUAGCUACACCCUCUAUAAAAAACUAAUAACAACCACUUCCUAAUCUGUCAUCUUCUG
In words: magnetic force spectroscopy, fraction of high-force cycles. The note with it: 100 mM KCl, 1 mM MgCl2; 50 mM HEPES pH 7.4, 1% DMSO, 22 °C.

For `NCc1c[nH]c2nc(N)[nH]c(=O)c12`, the KD/EC50 stood at 58.8 ± 6.3 nM.
